# Test results from publication PMC4319531 (Bioorganic & medicinal chemistry letters, 2014).
# Experiments:
# [1] = microsomes
# [2] = Metabolic stability in human liver microsomes; settings: both, pooled human liver microsomes, pH 7.4
# [3] = Metabolic stability in human intestinal microsomes; settings: both, pooled human intestinal microsomes, pH 7.4
# [4] = biological target: T1, recombinant CE-1 (Homo sapiens, UniProt P23141); assay: Incubation with purified recombinant CE-1; type: in vitro ADME; settings: 10 μM, within 60 minutes at room temperature
# T1 sequence (P23141 18-567): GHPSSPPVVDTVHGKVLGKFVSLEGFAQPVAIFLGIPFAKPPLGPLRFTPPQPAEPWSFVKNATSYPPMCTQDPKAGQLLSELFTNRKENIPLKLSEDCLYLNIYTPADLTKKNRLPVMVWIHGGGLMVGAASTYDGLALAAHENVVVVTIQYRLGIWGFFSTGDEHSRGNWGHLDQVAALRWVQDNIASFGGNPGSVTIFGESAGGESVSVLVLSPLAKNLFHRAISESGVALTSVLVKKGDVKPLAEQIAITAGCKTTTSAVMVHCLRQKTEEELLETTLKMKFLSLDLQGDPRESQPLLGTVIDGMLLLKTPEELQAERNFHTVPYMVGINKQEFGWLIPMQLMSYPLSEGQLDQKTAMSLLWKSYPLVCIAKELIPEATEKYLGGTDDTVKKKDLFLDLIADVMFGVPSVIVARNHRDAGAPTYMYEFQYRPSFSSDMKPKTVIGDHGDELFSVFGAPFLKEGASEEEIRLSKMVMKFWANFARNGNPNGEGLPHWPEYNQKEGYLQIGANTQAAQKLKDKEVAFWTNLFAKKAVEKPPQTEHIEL
# [5] = biological target: T2, recombinant CE-2 (Homo sapiens, UniProt O00748); assay: Incubation with purified recombinant CE-2; type: in vitro ADME; settings: 10 μM, within 60 minutes at room temperature
# T2 sequence (O00748 27-559): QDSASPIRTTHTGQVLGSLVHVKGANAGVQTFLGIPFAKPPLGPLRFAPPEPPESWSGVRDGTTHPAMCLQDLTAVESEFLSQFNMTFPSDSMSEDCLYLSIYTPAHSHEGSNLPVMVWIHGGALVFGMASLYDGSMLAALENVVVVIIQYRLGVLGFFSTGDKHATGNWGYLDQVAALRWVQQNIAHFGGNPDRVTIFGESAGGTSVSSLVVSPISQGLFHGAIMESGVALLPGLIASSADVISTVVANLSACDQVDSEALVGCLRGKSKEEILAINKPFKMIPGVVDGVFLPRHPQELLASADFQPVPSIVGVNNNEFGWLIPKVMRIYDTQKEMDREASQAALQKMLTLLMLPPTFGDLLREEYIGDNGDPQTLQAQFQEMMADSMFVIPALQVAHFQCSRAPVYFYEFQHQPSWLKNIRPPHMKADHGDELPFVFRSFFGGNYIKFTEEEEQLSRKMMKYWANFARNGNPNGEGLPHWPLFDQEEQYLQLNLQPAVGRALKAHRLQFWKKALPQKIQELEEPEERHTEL
Compound,microsomal CLint at 1 μM [3] [µL/min/mg],sensitivity to hydrolysis by recombinant CE-1 [4],sensitivity to hydrolysis by recombinant CE-2 [5],further results
2-(4-(4((benzyl(2methyl3(methylsulfonamido)phenyl)amino)methyl)phenoxy)phenoxy)ethyl 2-isobutyl-5-((methoxycarbonyl)amino)pentanoate [Compound 8b],,,,"CLint, in vitro HIM (microsomes): 220 µL/min/mg; half life (t1/2, min) HIM (pH 7.4): 6.3 min; half life (t1/2, min) HLM ([1]; human, pH 7.4): 17 min; CLint, in vitro HLM [1]: 82 µL/min/mg"
"COC(=O)NCCCC(C)C(=O)Oc1ccc(Oc2ccc(CN(Cc3ccccc3)c3cccc(NS(C)(=O)=O)c3C)cc2)cc1 (stereo not drawn) [Compound 8a, 4-(4-((benzyl(2-methyl-3-(methylsulfonamido)phenyl)amino)methyl)phenoxy)phenyl 5-((methoxycarbonyl)amino)-2-methylpentanoate]",2600,,,microsomal CLint at 1 μM [2]: 1000 µL/min/mg
C#CCC(CCCNC(=O)OC)C(=O)Oc1ccc(Oc2ccc(CN(Cc3ccccc3)c3cccc(NS(C)(=O)=O)c3C)cc2)cc1 (stereo not drawn) [Compound 8c],1700,,,
"COC(=O)NCCCC(C)(C)C(=O)Oc1ccc(Oc2ccc(CN(Cc3ccccc3)c3cccc(NS(C)(=O)=O)c3C)cc2)cc1 [Compound 8e, 4-(4-((benzyl(2-methyl-3-(methylsulfonamido)phenyl)amino)methyl)phenoxy)phenyl 5-((methoxycarbonyl)amino)-2,2-dimethylpentanoate]",1000,,,
"COC(=O)NCCCC(Cc1cn(Cc2ccccc2)nn1)C(=O)Oc1ccc(Oc2ccc(CN(Cc3ccccc3)c3cccc(NS(C)(=O)=O)c3C)cc2)cc1 (stereo not drawn) [Compound 8g, 4-(4-((benzyl(2-methyl-3-(methylsulfonamido)phenyl)amino)methyl)phenoxy)phenyl 2-((1-benzyl-1H-1,2,3-triazol-4-yl)methyl)-5-((methoxycarbonyl)amino)pentanoate]",480,completely resistant,moderate to extensive hydrolysis,microsomal CLint at 1 μM [2]: 140 µL/min/mg
COC(=O)NCCCC(Cc1cn(Cc2ccccc2)nn1)C(=O)OCCOc1ccc(Oc2ccc(CN(Cc3ccccc3)c3cccc(NS(C)(=O)=O)c3C)cc2)cc1 (stereo not drawn) [Compound 9g],,completely resistant,moderate to extensive hydrolysis,

# The next lines start with results.
microsomal CLint at 1 μM [3] [µL/min/mg],sensitivity to hydrolysis by recombinant CE-1 [4],sensitivity to hydrolysis by recombinant CE-2 [5],Compound,further results
140,,,COC(=O)NCCCC(Cc1ccccc1)C(=O)Oc1ccc(Oc2ccc(CN(Cc3ccccc3)c3cccc(NS(C)(=O)=O)c3C)cc2)cc1 (stereo not drawn) [Compound 8d],
43,completely resistant,moderate to extensive hydrolysis,COC(=O)NCCCC(C)(Cc1ccccc1)C(=O)Oc1ccc(Oc2ccc(CN(Cc3ccccc3)c3cccc(NS(C)(=O)=O)c3C)cc2)cc1 (stereo not drawn) [Compound 8f],
1900,completely resistant,moderate to extensive hydrolysis,C#CCC(CCCNC(=O)OC)C(=O)OCCOc1ccc(Oc2ccc(CN(Cc3ccccc3)c3cccc(NS(C)(=O)=O)c3C)cc2)cc1 (stereo not drawn) [Compound 9c],
